Tests used:
[1] = biological target: T1, BCL-2 (Homo sapiens, UniProt P10415); experiment: HTRF BCL-2/BAK assay (Cisbio); format: binding; conditions: recombinant human Tag1-BCL-2 2 nM, Tag2-BAK 10 nM
T1 construct: purchased Cisbio 63ADK000CB01PEG
Method: (§1) Then the pre-mixed anti-Tag1-Eu^3+ and anti-tag2-XL665 were added to the plate and further incubated at room temperature for another 2 hours. The signals ([…]) were read on Envision 2104 instrument. The IC50 for each compound was derived from fitting the signal of 665/615 nM to the increasing compound concentration.
(§2) Using the above assays, the following compounds were tested.

[2] = biological target: T2, BCL-XL (Homo sapiens, UniProt Q07817); experiment: HTRF BCL-XL/BAK assay (Cisbio); format: binding; conditions: recombinant human Tag1-BCL-XL 2 nM, Tag2-BAK 5 nM
T2 construct: purchased Cisbio 63ADK000CB04PEG
T2 sequence (Q07817 whole entry): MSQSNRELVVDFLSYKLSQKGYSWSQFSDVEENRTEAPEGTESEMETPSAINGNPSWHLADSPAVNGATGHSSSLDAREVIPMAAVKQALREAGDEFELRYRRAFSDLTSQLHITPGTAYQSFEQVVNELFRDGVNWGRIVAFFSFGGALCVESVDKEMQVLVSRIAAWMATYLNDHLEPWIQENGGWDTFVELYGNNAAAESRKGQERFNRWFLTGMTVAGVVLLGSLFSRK
Method: as §1, §2

[3] = tested on: DOHH2 cells; experiment: CellTiter-Glo cell proliferation assay, DOHH2 cells; format: cell-based; conditions: Homo sapiens, DOHH-2, 72 hours
In short: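 GI50 derived from CellTiter-Glo luminescent viability signal. Cells grown in DMEM with 10% FBS received a compound dilution series for 72 h (37 °C, 5% CO2).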

T1 sequence (P10415 whole entry): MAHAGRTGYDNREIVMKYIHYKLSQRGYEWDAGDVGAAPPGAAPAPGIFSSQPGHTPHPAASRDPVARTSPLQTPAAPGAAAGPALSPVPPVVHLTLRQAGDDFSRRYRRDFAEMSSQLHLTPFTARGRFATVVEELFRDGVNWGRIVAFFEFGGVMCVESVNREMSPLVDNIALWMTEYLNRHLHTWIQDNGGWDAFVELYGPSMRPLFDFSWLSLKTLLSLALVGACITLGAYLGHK

| IC50 [1] [µM] | IC50 [2] [µM] | SMILES | GI50 [3] [µM] |
| --- | --- | --- | --- |
| < 0.02 | 0.02 to 0.2 | O=C(NS(=O)(=O)c1ccc(NCC2CC3(COC3)C2)c([N+](=O)[O-])c1)c1ccc(N2CCN([C@@H]3CCCCc4c(Br)cccc43)CC2)cc1Oc1cnc2[nH]ccc2c1 [Compound 77, (R)-2-((1H-pyrrolo[2,3-b]pyridin-5-yl)oxy)-N-((4-(((2-oxaspiro[3.3]heptan-6-yl)methyl)amino)-3-nitrophenyl)sulfonyl)-4-(4-(1-bromo-6,7,8,9-tetrahydro-5H-benzo[7]annulen-5-yl)piperazin-1-yl)benzamide] | < 0.05 |
| < 0.02 | 0.2 to 2 | O=C(NS(=O)(=O)c1ccc(NCC2CCC3(CC2)COC3)c([N+](=O)[O-])c1)c1ccc(N2CCN([C@@H]3CCCCc4c(Br)cc(F)cc43)CC2)cc1Oc1cnc2[nH]ccc2c1 [Compound 79, (R)-2-((1H-pyrrolo[2,3-b]pyridin-5-yl)oxy)-N-((4-(((2-oxaspiro[3.5]nonan-7-yl)methyl)amino)-3-nitrophenyl)sulfonyl)-4-(4-(1-bromo-3-fluoro-6,7,8,9-tetrahydro-5H-benzo[7]annulen-5-yl)piperazin-1-yl)benzamide] | 0.05 to 0.5 |
| < 0.02 | < 0.02 | O=C(NS(=O)(=O)c1ccc(NCC2(O)CCN(C3COC3)CC2)c([N+](=O)[O-])c1)c1ccc(N2CCN([C@@H]3CCCCc4c(Cl)cccc43)CC2)cc1Oc1cnc2[nH]ccc2c1 [Compound 85, (R)-2-((1H-pyrrolo[2,3-b]pyridin-5-yl)oxy)-4-(4-(1-chloro-6,7,8,9-tetrahydro-5H-benzo[7]annulen-5-yl)piperazin-1-yl)-N-((4-(((4-hydroxy-1-(oxetan-3-yl)piperidin-4-yl)methyl)amino)-3-nitrophenyl)sulfonyl)benzamide] | < 0.05 |
| < 0.02 | 0.02 to 0.2 | O=C(NS(=O)(=O)c1ccc(NCC2CC3(CCOCC3)C2)c([N+](=O)[O-])c1)c1ccc(N2CCN([C@@H]3CCCCc4c(Cl)cccc43)CC2)cc1Oc1cnc2[nH]ccc2c1 [Compound 99, (R)-2-((1H-pyrrolo[2,3-b]pyridin-5-yl)oxy)-N-((4-(((7-oxaspiro[3.5]nonan-2-yl)methyl)amino)-3-nitrophenyl)sulfonyl)-4-(4-(1-chloro-6,7,8,9-tetrahydro-5H-benzo[7]annulen-5-yl)piperazin-1-yl)benzamide] | < 0.05 |
| < 0.02 | 0.02 to 0.2 | CC1(C)CC(CNc2ccc(S(=O)(=O)NC(=O)c3ccc(N4CCN([C@@H]5CCCCc6c(Cl)cccc65)CC4)cc3Oc3cnc4[nH]ccc4c3)cc2[N+](=O)[O-])CCO1 (stereo partly drawn) [Compound 102, 2-((1H-pyrrolo[2,3-b]pyridin-5-yl)oxy)-4-(4-((R)-1-chloro-6,7,8,9-tetrahydro-5H-benzo[7]annulen-5-yl)piperazin-1-yl)-N-((4-(((2,2-dimethyltetrahydro-2H-pyran-4-yl)methyl)amino)-3-nitrophenyl)sulfonyl)benzamide] | < 0.05 |
| < 0.02 | 0.02 to 0.2 | CC(C)(C)OC(=O)NCCN1CCC2(CC1)CC(CNc1ccc(S(=O)(=O)NC(=O)c3ccc(N4CCN([C@@H]5CCCCc6c(Cl)cccc65)CC4)cc3Oc3cnc4[nH]ccc4c3)cc1[N+](=O)[O-])C2 [Compound 109, tert-butyl (R)-(2-(2-(((4-(N-(2-((1H-pyrrolo[2,3-b]pyridin-5-yl)oxy)-4-(4-(1-chloro-6,7,8,9-tetrahydro-5H-benzo[7]annulen-5-yl)piperazin-1-yl)benzoyl)sulfamoyl)-2-nitrophenyl)amino)methyl)-7-azaspiro[3.5]nonan-7-yl)ethyl)carbamate] | < 0.05 |

Second part, the compound before the results:

| SMILES | IC50 [1] [µM] | IC50 [2] [µM] | GI50 [3] [µM] |
| --- | --- | --- | --- |
| Cc1ccc(S(=O)(=O)N2CCCC(N3CCN(c4ccc(C(=O)NS(=O)(=O)c5ccc(NCC6CCOCC6)c([N+](=O)[O-])c5)c(Oc5cnc6[nH]ccc6c5)c4)CC3)c3ccccc32)cc1 (stereo not drawn) [Compound 76, 2-((1H-pyrrolo[2,3-b]pyridin-5-yl)oxy)-N-((3-nitro-4-(((tetrahydro-2H-pyran-4-yl)methyl)amino)phenyl)sulfonyl)-4-(4-(1-tosyl-2,3,4,5-tetrahydro-1H-benzo[b]azepin-5-yl)piperazin-1-yl)benzamide] | < 0.02 | 0.2 to 2 | 0.5 to 5 |
| O=C(NS(=O)(=O)c1ccc(NCC2CCOCC2)c([N+](=O)[O-])c1)c1ccc(N2CCN([C@@H]3CCCCc4c(Br)cc(F)cc43)CC2)cc1Oc1cnc2[nH]ccc2c1 [Compound 78, (R)-2-((1H-pyrrolo[2,3-b]pyridin-5-yl)oxy)-4-(4-(1-bromo-3-fluoro-6,7,8,9-tetrahydro-5H-benzo[7]annulen-5-yl)piperazin-1-yl)-N-((3-nitro-4-(((tetrahydro-2H-pyran-4-yl)methyl)amino)phenyl)sulfonyl)benzamide] | < 0.02 | 0.2 to 2 | 0.05 to 0.5 |
| O=C(NS(=O)(=O)c1ccc(NCCN2CCC3(CC2)COC3)c([N+](=O)[O-])c1)c1ccc(N2CCN([C@@H]3CCCCc4c(Br)cc(F)cc43)CC2)cc1Oc1cnc2[nH]ccc2c1 [Compound 80, (R)-2-((1H-pyrrolo[2,3-b]pyridin-5-yl)oxy)-N-((4-((2-(2-oxa-7-azaspiro[3.5]nonan-7-yl)ethyl)amino)-3-nitrophenyl)sulfonyl)-4-(4-(1-bromo-3-fluoro-6,7,8,9-tetrahydro-5H-benzo[7]annulen-5-yl)piperazin-1-yl)benzamide] | < 0.02 | 0.02 to 0.2 | 0.5 to 5 |
| O=C(NS(=O)(=O)c1ccc(NCC2CCN(C3COC3)CC2)c([N+](=O)[O-])c1)c1ccc(N2CCN([C@@H]3CCCCc4c(Cl)cccc43)CC2)cc1Oc1cnc2[nH]ccc2c1 [Compound 83, (R)-2-((1H-pyrrolo[2,3-b]pyridin-5-yl)oxy)-4-(4-(1-chloro-6,7,8,9-tetrahydro-5H-benzo[7]annulen-5-yl)piperazin-1-yl)-N-((3-nitro-4-(((1-(oxetan-3-yl)piperidin-4-yl)methyl)amino)phenyl)sulfonyl)benzamide] | < 0.02 | < 0.02 | < 0.05 |
| O=C(NS(=O)(=O)c1ccc(NCCN2CCN(C3COC3)CC2)c([N+](=O)[O-])c1)c1ccc(N2CCN([C@@H]3CCCCc4c(Cl)cccc43)CC2)cc1Oc1cnc2[nH]ccc2c1 [Compound 84, (R)-2-((1H-pyrrolo[2,3-b]pyridin-5-yl)oxy)-4-(4-(1-chloro-6,7,8,9-tetrahydro-5H-benzo[7]annulen-5-yl)piperazin-1-yl)-N-((3-nitro-4-((2-(4-(oxetan-3-yl)piperazin-1-yl)ethyl)amino)phenyl)sulfonyl)benzamide] | < 0.02 | 0.02 to 0.2 | < 0.05 |
| CN1CCC(CNc2ccc(S(=O)(=O)NC(=O)c3ccc(N4CCN([C@@H]5CCCCc6c(Cl)cc(F)cc65)CC4)cc3Oc3cnc4[nH]ccc4c3)cc2[N+](=O)[O-])CC1 [Compound 86, (R)-2-((1H-pyrrolo[2,3-b]pyridin-5-yl)oxy)-4-(4-(1-chloro-3-fluoro-6,7,8,9-tetrahydro-5H-benzo[7]annulen-5-yl)piperazin-1-yl)-N-((4-(((1-methylpiperidin-4-yl)methyl)amino)-3-nitrophenyl)sulfonyl)benzamide] | < 0.02 | < 0.02 | < 0.05 |
| O=C(NS(=O)(=O)c1ccc(NCC2CCOCC2)c([N+](=O)[O-])c1)c1ccc(N2CCN([C@@H]3CCCCc4c(Cl)cc(F)cc43)CC2)cc1Oc1cnc2[nH]ccc2c1 [Compound 87, (R)-2-((1H-pyrrolo[2,3-b]pyridin-5-yl)oxy)-4-(4-(1-chloro-3-fluoro-6,7,8,9-tetrahydro-5H-benzo[7]annulen-5-yl)piperazin-1-yl)-N-((3-nitro-4-(((tetrahydro-2H-pyran-4-yl)methyl)amino)phenyl)sulfonyl)benzamide] | < 0.02 | 0.02 to 0.2 | < 0.05 |
| O=C(NS(=O)(=O)c1ccc(NCC2(O)CCN(C3COC3)CC2)c([N+](=O)[O-])c1)c1ccc(N2CCN([C@@H]3CCCCc4c(Cl)cc(F)cc43)CC2)cc1Oc1cnc2[nH]ccc2c1 [Compound 88, (R)-2-((1H-pyrrolo[2,3-b]pyridin-5-yl)oxy)-4-(4-(1-chloro-3-fluoro-6,7,8,9-tetrahydro-5H-benzo[7]annulen-5-yl)piperazin-1-yl)-N-((4-(((4-hydroxy-1-(oxetan-3-yl)piperidin-4-yl)methyl)amino)-3-nitrophenyl)sulfonyl)benzamide] | < 0.02 | < 0.02 | < 0.05 |
| CC1(C)COCCC1CNc1ccc(S(=O)(=O)NC(=O)c2ccc(N3CCN([C@@H]4CCCCc5c(Cl)cccc54)CC3)cc2Oc2cnc3[nH]ccc3c2)cc1[N+](=O)[O-] (stereo partly drawn) [Compound 101, 2-((1H-pyrrolo[2,3-b]pyridin-5-yl)oxy)-4-(4-((R)-1-chloro-6,7,8,9-tetrahydro-5H-benzo[7]annulen-5-yl)piperazin-1-yl)-N-((4-(((3,3-dimethyltetrahydro-2H-pyran-4-yl)methyl)amino)-3-nitrophenyl)sulfonyl)benzamide] | < 0.02 | 0.02 to 0.2 | < 0.05 |
| NCCN1CCC2(CC1)CC(CNc1ccc(S(=O)(=O)NC(=O)c3ccc(N4CCN([C@@H]5CCCCc6c(Cl)cccc65)CC4)cc3Oc3cnc4[nH]ccc4c3)cc1[N+](=O)[O-])C2 [Compound 110, (R)-2-((1H-pyrrolo[2,3-b]pyridin-5-yl)oxy)-N-((4-(((7-(2-aminoethyl)-7-azaspiro[3.5]nonan-2-yl)methyl)amino)-3-nitrophenyl)sulfonyl)-4-(4-(1-chloro-6,7,8,9-tetrahydro-5H-benzo[7]annulen-5-yl)piperazin-1-yl)benzamide] | < 0.02 | < 0.02 | < 0.05 |
